Data taken from US20260116910A1, “POLYCYCLIC COMPOUNDS AND METHODS THEREOF” (HEPAITECH (BEIJING) BIOPHARMA TECHNOLOGY CO., LTD., priority 2021, published 2026).
Read-outs that look alike come from different tables or passages of the source.

How the values were obtained:
human FXR (NR1H4) = target: T1, human FXR (NR1H4) (Homo sapiens, UniProt Q96RI1); assay: Human FXR (NR1H4) agonist assessment, FXRE-NanoLuc reporter in HEK293T cells; assay type: cell-based
T1 sequence (Q96RI1 1-476 isoform Q96RI1-1): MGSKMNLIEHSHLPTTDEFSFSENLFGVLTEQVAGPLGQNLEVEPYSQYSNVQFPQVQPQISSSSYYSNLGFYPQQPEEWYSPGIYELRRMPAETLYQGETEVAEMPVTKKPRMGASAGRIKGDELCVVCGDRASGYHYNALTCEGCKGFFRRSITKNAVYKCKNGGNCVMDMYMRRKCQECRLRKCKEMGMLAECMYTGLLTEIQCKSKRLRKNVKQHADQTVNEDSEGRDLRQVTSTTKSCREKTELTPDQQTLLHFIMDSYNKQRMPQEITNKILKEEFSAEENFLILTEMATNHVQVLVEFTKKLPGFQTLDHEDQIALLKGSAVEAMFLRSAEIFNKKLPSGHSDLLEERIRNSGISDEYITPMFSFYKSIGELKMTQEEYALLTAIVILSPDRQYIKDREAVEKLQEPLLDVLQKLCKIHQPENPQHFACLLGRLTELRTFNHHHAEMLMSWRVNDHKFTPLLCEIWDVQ
Outline: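 Read-out was NanoLuc luminescence in culture medium, measured 5 min after adding coelenterazine. Cells were HEK293T stably carrying human FXR and an FXRE reporter, exposed to compound for 24 hr at 37 °C. Vehicle was 0.01% DMSO. EC50 was obtained from sigmoid fits of gradient dilutions.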

MRGPRX4 = MRGPRX4 (Homo sapiens, UniProt Q96LA9); assay: MRGPRX4 activation, Fluo-8 Ca2+ FLIPR assay in HEK293T cells stably expressing MRGPRX4; assay type: cell-based; design: key to MRGPRX4 activation, Average / MRGPRX4 activation, Ave.: fluorescence change dF/F0
Chain of MRGPRX4 (Q96LA9 whole entry): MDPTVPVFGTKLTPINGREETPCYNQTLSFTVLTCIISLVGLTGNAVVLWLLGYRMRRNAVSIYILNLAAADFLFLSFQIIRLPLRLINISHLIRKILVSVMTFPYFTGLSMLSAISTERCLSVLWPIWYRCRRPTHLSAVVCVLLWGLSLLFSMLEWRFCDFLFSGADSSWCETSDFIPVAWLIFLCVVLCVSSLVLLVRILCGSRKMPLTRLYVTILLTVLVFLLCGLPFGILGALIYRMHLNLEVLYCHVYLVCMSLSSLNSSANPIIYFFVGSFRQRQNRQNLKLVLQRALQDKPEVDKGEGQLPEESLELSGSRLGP
Outline: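 Response measured as dF/F0: 30 s baseline, then 150 s after compound addition on FLIPR Tetra, in HHBS after 40-60 min room-temperature loading with 2 μM Fluo-8 AM.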

[1] = FXR activation, HEK293T FXRE-NanoLuc reporter, 24 hr
[2] = FXR activation, HEK293T FXRE-NanoLuc reporter, 24 hr, read-out: EC50
[3] = MRGPRX4 activation, Ca2+ fluorescence, no activation in tested range reported as III, read-out: Activity (EC50 μM)

SMILES | Efficacy (maximum measured induction of NanoLuc, normalized to CDCA set as 100%) (human FXR (NR1H4); [1]) | MRGPRX4 activation, Average (MRGPRX4; E3-9, Conc. (Log[M]) −4.0) | MRGPRX4 activation, Average (MRGPRX4; E3-9, Conc. (Log[M]) −4.5) | MRGPRX4 activation, Average (MRGPRX4; E3-9, Conc. (Log[M]) −5.0) | MRGPRX4 activation, Average (MRGPRX4; E3-9, Conc. (Log[M]) −5.4) | MRGPRX4 activation, Average (MRGPRX4; E3-9, Conc. (Log[M]) −5.9) | EC50 (human FXR (NR1H4); [2]) [µM] | EC50 (MRGPRX4; [3]) [µM] | Activation (%) (MRGPRX4; second E3-8-1, 4.6 nM, n = 1) | Activation (%) (MRGPRX4; second E3-8-1, 4.6 nM, n = 2) | Activation (%) (MRGPRX4; second E3-8-1, 14 nM, n = 1) | Activation (%) (MRGPRX4; second E3-8-1, 14 nM, n = 2) | Activation (%) (MRGPRX4; second E3-8-1, 41 nM, n = 1) | Activation (%) (MRGPRX4; second E3-8-1, 41 nM, n = 2) | Activation (%) (MRGPRX4; second E3-8-1, 123 nM, n = 1) | Activation (%) (MRGPRX4; second E3-8-1, 123 nM, n = 2) | Activation (%) (MRGPRX4; second E3-8-1, 370 nM, n = 1) | Activation (%) (MRGPRX4; second E3-8-1, 370 nM, n = 2) | Activation (%) (MRGPRX4; second E3-8-1, 1111 nM, n = 1) | Activation (%) (MRGPRX4; second E3-8-1, 1111 nM, n = 2) | further results
[2H]C1([2H])CC[C@@]2(C)[C@@H](C1)[C@@H](CC)[C@@H](O)[C@@H]1[C@@H]2CC[C@]2(C)[C@@H]([C@H](C)CCN=C=S)CC[C@@H]12 [14-2] | C (100%<efficacy <=300%) | 0.090 | 0.027 | 0.027 | 0.030 | 0.020 | – | – | – | – | – | – | – | – | – | – | – | – | – | – | EC50 (human FXR (NR1H4)): > 10 µM; EC50 (MRGPRX4): > 100 µM; MRGPRX4 activation, Average (MRGPRX4; E3-9, Conc. (Log[M]) −6.4): 0.013; MRGPRX4 activation, Average (MRGPRX4; E3-9, Conc. (Log[M]) −6.9): 0.013; MRGPRX4 activation, Average (MRGPRX4; E3-9, Conc. (Log[M]) −7.3): 0.013; MRGPRX4 activation, Average (MRGPRX4; E3-9, Conc. (Log[M]) −7.8): 0.010; MRGPRX4 activation, Average (MRGPRX4; E3-9, Conc. (Log[M]) −8.3): 0.010
[2H]C1([2H])CC[C@@]2(C)[C@@H](C1)[C@@H](CC)[C@@H](O)[C@@H]1[C@@H]2CC[C@]2(C)[C@@H]([C@H](C)CCNC(=S)NS(=O)(=O)c3cccs3)CC[C@@H]12 [14-4] | – | 0.061 | 0.020 | 0.013 | 0.018 | 0.013 | < 1 | > 100 | – | – | – | – | – | – | – | – | – | – | – | – | Efficacy (maximum measured induction of NanoLuc, normalized to CDCA set as 100%) (human FXR (NR1H4)): C (key: A: efficacy >400%; B: 300%<efficacy <=400%; C: 100%<efficacy <=300%; D: efficacy <=100%); MRGPRX4 activation, Average (MRGPRX4; E3-9, Conc. (Log[M]) −6.4): 0.020; MRGPRX4 activation, Average (MRGPRX4; E3-9, Conc. (Log[M]) −6.9): 0.015; MRGPRX4 activation, Average (MRGPRX4; E3-9, Conc. (Log[M]) −7.3): 0.015; MRGPRX4 activation, Average (MRGPRX4; E3-9, Conc. (Log[M]) −7.8): 0.008; MRGPRX4 activation, Average (MRGPRX4; E3-9, Conc. (Log[M]) −8.3): 0.015
CC[C@H]1[C@@H](O)[C@@H]2[C@H](CC[C@]3(C)[C@@H]([C@H](C)COC(=O)NS(=O)(=O)c4ccc(C(C)(C)CF)cc4)CC[C@@H]23)[C@@]2(C)CCCC[C@@H]12 [18-1] | A (efficacy >400%) | 0.168 | 0.003 | 0.008 | 0.019 | 0.018 | < 1 | > 100 | 3.17 | 2.86 | 2.86 | 3.17 | 2.55 | 3.48 | 2.55 | 3.17 | 3.17 | 3.48 | 2.86 | 2.86 | Activation (%) (MRGPRX4; second E3-8-1, 3333 nM, n = 1): 1.93%; Activation (%) (MRGPRX4; second E3-8-1, 3333 nM, n = 2): 2.55%; Activation (%) (MRGPRX4; second E3-8-1, 10000 nM, n = 1): 2.86%; Activation (%) (MRGPRX4; second E3-8-1, 10000 nM, n = 2): 3.79%; Activation (%) (MRGPRX4; second E3-8-1, 30000 nM, n = 1): 2.24%; Activation (%) (MRGPRX4; second E3-8-1, 30000 nM, n = 2): 2.24%
CC[C@H]1[C@@H](O)[C@@H]2[C@H](CC[C@]3(C)[C@@H]([C@H](C)COC(=O)NS(=O)(=O)c4ccc5c(c4)CCC(C)(C)O5)CC[C@@H]23)[C@@]2(C)CCCC[C@@H]12 [18-2] | A (efficacy >400%) | – | – | – | – | – | < 1 | > 100 | 2.86 | 3.17 | 3.79 | 3.79 | 3.17 | 1.93 | 3.48 | 2.86 | 3.48 | 3.48 | 2.24 | 2.55 | Activation (%) (MRGPRX4; second E3-8-1, 3333 nM, n = 1): 3.17%; Activation (%) (MRGPRX4; second E3-8-1, 3333 nM, n = 2): 1.93%; Activation (%) (MRGPRX4; second E3-8-1, 10000 nM, n = 1): 3.48%; Activation (%) (MRGPRX4; second E3-8-1, 10000 nM, n = 2): 2.24%; Activation (%) (MRGPRX4; second E3-8-1, 30000 nM, n = 1): 4.10%; Activation (%) (MRGPRX4; second E3-8-1, 30000 nM, n = 2): 3.48%
CC[C@H]1[C@@H](O)[C@@H]2[C@H](CC[C@]3(C)[C@@H]([C@H](C)COC(=O)NS(=O)(=O)c4ccc(N5CCCCC5)nc4)CC[C@@H]23)[C@@]2(C)CCCC[C@@H]12 [18-3] | A (efficacy >400%) | 0.519 | 0.027 | 0.021 | 0.018 | 0.018 | < 1 | > 100 | 3.17 | 2.86 | 2.86 | 2.55 | 2.86 | 2.55 | 2.86 | 2.86 | 2.24 | 3.48 | 2.55 | 2.24 | Activation (%) (MRGPRX4; second E3-8-1, 3333 nM, n = 1): 3.17%; Activation (%) (MRGPRX4; second E3-8-1, 3333 nM, n = 2): 2.24%; Activation (%) (MRGPRX4; second E3-8-1, 10000 nM, n = 1): 2.24%; Activation (%) (MRGPRX4; second E3-8-1, 10000 nM, n = 2): 2.86%; Activation (%) (MRGPRX4; second E3-8-1, 30000 nM, n = 1): 1.63%; Activation (%) (MRGPRX4; second E3-8-1, 30000 nM, n = 2): 0.08%
CC[C@H]1[C@@H](O)[C@@H]2[C@H](CC[C@]3(C)[C@@H]([C@H](C)CNC(=O)NS(=O)(=O)c4ccc(C(C)(C)CF)cc4)CC[C@@H]23)[C@@]2(C)CCCC[C@@H]12 [20-1] | A (efficacy >400%) | 0.018 | 0.016 | 0.019 | 0.019 | 0.021 | < 1 | > 100 | – | – | – | – | – | – | – | – | – | – | – | – | –
CC[C@H]1[C@@H](O)[C@@H]2[C@H](CC[C@]3(C)[C@@H]([C@H](C)CNC(=O)NS(=O)(=O)c4ccc5c(c4)CCC(C)(C)O5)CC[C@@H]23)[C@@]2(C)CCCC[C@@H]12 [20-2] | B (300%<efficacy <=400%) | 0.025 | 0.012 | 0.021 | 0.019 | 0.025 | 1 to 10 | > 100 | – | – | – | – | – | – | – | – | – | – | – | – | –
CC[C@H]1[C@@H](O)[C@@H]2[C@H](CC[C@]3(C)[C@@H]([C@H](C)CNC(=O)NS(=O)(=O)c4ccc(N5CCCCC5)nc4)CC[C@@H]23)[C@@]2(C)CCCC[C@@H]12 [20-3] | B (300%<efficacy <=400%) | – | – | – | – | – | 1 to 10 | > 100 | 3.48 | 2.86 | 3.48 | 3.79 | 3.48 | 3.48 | 3.17 | 3.79 | 3.17 | 3.17 | 3.79 | 3.48 | Activation (%) (MRGPRX4; second E3-8-1, 3333 nM, n = 1): 2.55%; Activation (%) (MRGPRX4; second E3-8-1, 3333 nM, n = 2): 3.17%; Activation (%) (MRGPRX4; second E3-8-1, 10000 nM, n = 1): 2.55%; Activation (%) (MRGPRX4; second E3-8-1, 10000 nM, n = 2): 3.17%; Activation (%) (MRGPRX4; second E3-8-1, 30000 nM, n = 1): 1.63%; Activation (%) (MRGPRX4; second E3-8-1, 30000 nM, n = 2): 2.24%
C[C@H](CC(=O)O)[C@H]1CC[C@H]2[C@@H]3CC[C@@H]4C[C@H](O)CC[C@]4(C)[C@H]3C[C@H](O)[C@]12C [RC-1] | B (300%<efficacy <=400%) | – | – | – | – | – | 1 to 10 | < 50 | – | – | – | – | – | – | – | – | – | – | – | – | MRGPRX4 activation, fluorescence change (dF/F0), Average (MRGPRX4; Conc. (Log[M]) −4): 0.329; MRGPRX4 activation, fluorescence change (dF/F0), Average (MRGPRX4; Conc. (Log[M]) −4.5): 0.080; MRGPRX4 activation, fluorescence change (dF/F0), Average (MRGPRX4; Conc. (Log[M]) −5): −0.029; MRGPRX4 activation, fluorescence change (dF/F0), Average (MRGPRX4; Conc. (Log[M]) −5.5): −0.019; MRGPRX4 activation, fluorescence change (dF/F0), Average (MRGPRX4; Conc. (Log[M]) −6): −0.015; MRGPRX4 activation, fluorescence change (dF/F0), Average (MRGPRX4; Conc. (Log[M]) −7): −0.010; MRGPRX4 activation, fluorescence change (dF/F0), Average (MRGPRX4; Conc. (Log[M]) −8): −0.003; MRGPRX4 activation, fluorescence change (dF/F0), Average (MRGPRX4; Conc. (Log[M]) −9): −0.005
